What follows are compounds tested on Human prostate cancer cell lines (PC-3 cells) (assay: Measurement of cell death-inducing activity (Test Example 1)). Conditions: PC-3, 48 h, 48 hours after addition, tested at 10, 1, 0.1, 0.025 and 0.00625 μmol/L, qualitative evaluation of 10 fields, read-out: Concentration showing the cell death-inducing activity (cell death-inducing rate not less than 40%).
Format: cell-based
In short: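 PC-3 cells seeded at 1×10^5 cells/well and grown 48 h at 37 °C, 5% CO2, then exposed to compound at 10, 1, 0.1, 0.025 and 0.00625 μmol/L (DMSO control) for a further 48 h. Activity was called where cell death-inducing rate was not less than 40%.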
For `COc1ccc(/C=N/NC(=O)c2sc(-c3nccc4ccccc34)nc2C)cc1O` [Example 23-27], the minimal effective concentration was 10 µM. Work on `COc1ccc(/C=N/NC(=O)c2sc(-c3ccccn3)nc2C)cc1O` [Example 23-28] yielded a minimal effective concentration of 1 µM. `CCCCCCc1nc(-c2ccc(Cl)cc2)sc1C(=O)N/N=C/c1ccc(OC)c(O)c1` [Example 23-30] was tested, and the minimal effective concentration was 10 µM. For `Cc1ccc(/C=N/NC(=O)c2sc(-c3ccc(Cl)cc3)nc2C)cc1O` [Example 23-35], the minimal effective concentration was 10 µM. Work on `COc1ccc(/C=N/NC(=O)c2sc(-c3csc4ccccc34)nc2C)cc1O` [Example 23-38] yielded a minimal effective concentration of 1 µM. With `COc1ccc(/C=N/NC(=O)c2sc(-c3ccncc3)nc2C)cc1O` [Example 23-40] the minimal effective concentration was 10 µM. `COc1ccc(/C=N/NC(=O)c2sc(-c3cccnc3)nc2C)cc1O` [Example 23-41] was tested, and the minimal effective concentration was 1 µM. In the case of `COc1ccc(/C=N/NC(=O)c2sc(-c3ccc(Cl)cc3)nc2C)cc1OC` [Example 23-42], the minimal effective concentration was 10 µM. Compound `Cc1cccc(-c2nc(C)c(C(=O)N/N=C/c3ccc4c(c3)OCO4)s2)c1C` [Example 23-43] has a minimal effective concentration of 1 µM. For `COc1ccc(/C=N/NC(=O)c2sc(-c3ccc(C)cc3C)nc2C)cc1O` [Example 23-44], the minimal effective concentration was 0.1 µM. For `Cc1ccc(-c2nc(C)c(C(=O)N/N=C/c3ccc(O)c(C)c3)s2)c(C)c1` [Example 23-45], the minimal effective concentration was 1 µM. Compound `COc1ccc(/C=N/NC(=O)c2sc(-c3ccc(Cl)cc3C)nc2C)cc1O` [Example 23-46] has a minimal effective concentration of 0.025 µM. With `Cc1cc(/C=N/NC(=O)c2sc(-c3ccc(Cl)cc3C)nc2C)ccc1O` [Example 23-47] the minimal effective concentration was 1 µM. With `CCCOc1ccccc1-c1nc(C)c(C(=O)N/N=C/c2ccc(OC)c(O)c2)s1` [Example 23-48] the minimal effective concentration was 0.1 µM. Compound `COc1ccc(/C=N/NC(=O)c2cnc(-c3ccccc3C)s2)cc1O` [Example 23-50] has a minimal effective concentration of 0.1 µM. Compound `Cc1cc(/C=N/NC(=O)c2cnc(-c3ccccc3C)s2)ccc1O` [Example 23-51] has a minimal effective concentration of 10 µM. In the case of `Cc1ccccc1-c1ncc(C(=O)N/N=C/c2ccc3c(c2)OCO3)s1` [Example 23-52], the minimal effective concentration was 1 µM. For `COc1ccc(/C=N/NC(=O)c2sc(-c3ccccc3)nc2C)cc1O` [Example 23-53], the minimal effective concentration was 0.1 µM. `CCCOc1ccccc1-c1nc(C)c(C(=O)N/N=C/c2cc(C)c(O)c(C)c2)s1` [Example 23-55] showed a minimal effective concentration of 1 µM. `COc1ccc(/C=N/NC(=O)c2sc(-c3ccccc3O)nc2C)cc1O` [Example 23-57] showed a minimal effective concentration of 10 µM. `Cc1nc(-c2ccc(Cl)cc2)sc1C(=O)N/N=C/c1ccccc1O` [Example 23-59] showed a minimal effective concentration of 10 µM. Compound `COc1cccc(/C=N/NC(=O)c2sc(-c3ccc(Cl)cc3)nc2C)c1O` [Example 23-60] has a minimal effective concentration of 10 µM. In the case of `COc1ccc(/C=N/NC(=O)c2sc(-c3ccc(Cl)cc3)nc2C)c(Cl)c1O` [Example 23-61], the minimal effective concentration was 1 µM. With `COc1ccc(/C=N/NC(=O)c2sc(-c3ccccc3F)nc2C)cc1` [Example 23-65] the minimal effective concentration was 1 µM. `COc1ccc(/C=N/NC(=O)c2sc(-c3cccc(F)c3)nc2C)cc1` [Example 23-66] showed a minimal effective concentration of 1 µM. Compound `COc1ccc(/C=N/NC(=O)c2sc(-c3ccc(F)cc3)nc2C)cc1` [Example 23-67] has a minimal effective concentration of 1 µM. With `COc1ccc(/C=N/NC(=O)c2sc(-c3ccccc3OC)nc2C)cc1F` [Example 23-68] the minimal effective concentration was 0.1 µM. `COc1ccccc1-c1nc(C)c(C(=O)N/N=C/c2ccc(SC)cc2)s1` [Example 23-70] gave a minimal effective concentration of 0.1 µM. `COc1ccc(/C=N/NC(=O)c2sc(-c3ccccc3F)nc2C)cc1O` [Example 23-71] showed a minimal effective concentration of 1 µM. In the case of `COc1ccc(/C=N/NC(=O)c2sc(-c3cccc(F)c3)nc2C)cc1O` [Example 23-72], the minimal effective concentration was 1 µM. `COc1ccc(/C=N/NC(=O)c2sc(-c3ccc(F)cc3)nc2C)cc1O` [Example 23-73] gave a minimal effective concentration of 0.1 µM.
